Usually GI50 stands for the concentration giving 50% growth inhibition.

Like-named read-outs stand apart in the source and are kept apart here.

The subject of data set [1] is HeLa cells. In words: HeLa cell viability (PrestoBlue) assay, 72 h. In kind it is cell-based, human. The note with it: HeLa cells; for GI50: Homo sapiens. As for the experimental part: The human HeLa cell line was tested negative for mycoplasma contamination. HeLa cells were grown in RPMI 1640 medium supplemented with penicillin/streptomycin (100 μg/ml) and 10% FBS and maintained in a humidified incubator at 37°C and 5% CO2.
Cell viability was analyzed using the colorimetric PrestoBlue assay. Cells were seeded in 96-well microplates at a density of 7500 cells per well, allowed to adhere for 24 hours, and treated for 72 hours with either DMSO or drugs at indicated concentrations. PrestoBlue (10 μl) was then added to each well, followed by a 30-min incubation. Fluorescence was measured using a FLUOstar Optima microplate reader (excitation, 544 nm; emission, 580 nm; BMG Labtech).

Data set [2] concerns adult mouse DRG neurons. In words: Axonal degeneration index in dissociated adult mouse DRG neurons. The note with it: DIV 12 neurons, 72 h; Carba1 12 μM, PTX 50 nM, Cis 10 μM, Bort 100 nM.
Protocol: After 4 days in vitro (DIV), at least 30% of medium was changed, and 10 μM AraC (cytosine β-D-arabino furanoside) was added to suppress nonneuronal growth. […] Neurons were fixed with 4% paraformaldehyde (PFA), washed with PBS, permeabilized with PBS–0.01% Triton X-100 for 15 min, and blocked with PBS–10% FBS for 1 hour before being stained overnight at 4°C with neurofilament antibody. Following PBS washes, secondary antibody (goat anti-chicken Alexa Fluor 488) was applied for 2 hours at room temperature (R.T.). Following additional PBS washes, coverslips were mounted with Fluoromount-G.
Images of random fields of dissociated adult DRG neurons, immunostained with antineurofilament or anti-TUBB3 antibodies, were captured using a 20× objective lens (Olympus IX81) and a Sensicam QE monochrome camera (Cooke Corporation). Degeneration masks were generated on the basis of the method described by Gerdts et al. ([66]). Axonal degeneration was quantified by measuring the total axonal area and fragmented axonal area in the same field, using degeneration masks as shown in fig. […] Images were processed in Fiji using global autothresholding, binarization, and the particle analyzer module to detect fragments (20 to 10,000 pixels), as previously described ([17]). The degeneration index was calculated as the ratio of fragmented axonal area to total axonal area.
Data set [3] addresses T1, NAMPT (Homo sapiens, UniProt P43490). In words: NAMPT activity assay (coupled recombinant enzyme kit). In kind it is biochemical. More on the design: purchased Abcam ab221819. The note with it: OD450 at 60 min, normalized by subtraction of DMSO value. An excerpt: We next tested whether Carba1 could activate NAMPT in vitro. To that aim, we used a commercial recombinant human enzyme assay containing four enzymes: NAMPT, NAM nucleotide adenylyltransferase 1 (NMNAT1), alcohol dehydrogenase (ADH), and diaphorase (see Materials and Methods). In the presence of NAM and 5-phosphoribosyl-1-pyrophosphate (PRPP), NAMPT converts NAM to NMN, which is then converted into NAD^+ by NMNAT1, while ADH converts NAD^+ to NADH. Then, into a coupled-reaction, diaphorase converts NADH into NAD^+ and tetrazolium salt WST-1 {4-[3-(4-iodophenyl)-2-(4-nitro-phenyl)-2H-5-tetrazolio]-1,3-benzene sulfonate} to formazan, which can be detected at optical density at 450 nm (OD450). In practice, we proceeded in two steps. First, Carba1 and the different tested compounds were incubated for 15 min with NAMPT, NMNAT1, NAM, and PRPP to allow NAD^+ production. The reaction was then stopped with FK866 before adding ADH and diaphorase to convert the NAD^+ produced to NADH, and absorbance was monitored at regular intervals.
NAMPT activity was measured using the commercial kit, NAMPT Activity Assay, according to the manufacturer’s instructions. […] A mixture of water-soluble tetrazolium salts (WST-1), ADH, diaphorase, and ethanol was added and the absorbance (OD450) measured for 90 min using the microplate reader ClarioSTAR (BMG Labtech).
Target sequence in this assay (P43490 whole entry): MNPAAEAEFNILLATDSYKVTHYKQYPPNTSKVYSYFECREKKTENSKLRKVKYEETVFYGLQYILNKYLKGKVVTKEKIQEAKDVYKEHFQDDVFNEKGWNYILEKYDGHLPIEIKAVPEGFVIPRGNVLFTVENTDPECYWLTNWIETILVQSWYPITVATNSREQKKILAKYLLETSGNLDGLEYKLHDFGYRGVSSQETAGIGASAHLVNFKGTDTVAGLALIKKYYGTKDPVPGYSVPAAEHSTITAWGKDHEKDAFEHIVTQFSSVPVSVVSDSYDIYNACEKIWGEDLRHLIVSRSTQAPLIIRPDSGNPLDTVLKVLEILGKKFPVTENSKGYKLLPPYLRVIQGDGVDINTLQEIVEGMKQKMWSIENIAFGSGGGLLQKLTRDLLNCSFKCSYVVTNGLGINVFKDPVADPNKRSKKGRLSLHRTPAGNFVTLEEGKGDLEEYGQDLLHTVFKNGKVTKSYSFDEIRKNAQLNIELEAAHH

Data set [4] deals with HeLa cells. In words: NAD(P)H autofluorescence imaging in live HeLa cells. In kind it is cell-based, human. Conditions: 5 and 10 nM FK866, 24-hour incubation. As for the experimental part: HeLa cells were seeded in four-chamber Labtek plates at 10,000 cells per well. After 48 hours, cells were preincubated with or without 12 μM Carba1 for 2 hours before addition of FK866 (5 and 10 nM). Drugs were added to phenol red–free DMEM medium, supplemented with 10% FBS 1% penicillin/streptomycin. After 24 hours of drug incubation, cells were imaged using a confocal microscope (LSM 710, Zeiss) with a two-photon excitation at 700 nm (Chameleon Vision Laser, Coherent) and a 40×/1.2 water-immersion objective. Detection was performed in single-photon mode using an avalanche photodiode detector (ConfoCor 3). NAD(P)H signal intensity was quantified as the mean signal per cell using ImageJ and normalized to the cell area.

Data set [5] has as its target T1, NAMPT. In words: AS-MS binding assay, NAMPT. The note with it: 10 μM compound, 3 μM NAMPT. As for the experimental part:
To this end, Carba1 or FK866 (positive control of NAMPT binding) was first incubated with NAMPT or carbonic anhydrase (CA; negative control). Protein-ligand complexes were separated from the unbound compounds by size exclusion chromatography (SEC). To quantify the protein-bound fraction, the complexes were then dissociated using reverse-phase chromatography, and the compounds were analyzed and quantified by mass spectrometry.
(§1) AS-MS was used to assess compound binding to NAMPT. AS-MS was performed by Edelris SAS (www.edelris.com/), which has developed the commercial AS-MS service “EDEN platform,” based on ([71]). Conditions consisted of protein (NAMPT and CA) at 3 μM and compounds (Carba1 and FK866) at 10 μM dissolved in corporate buffer.
Target sequence in this assay (P43490 whole entry, species assumed): as the sequence (P43490 whole entry) above

In data set [6] the test system is carbonic anhydrase (CA). In words: AS-MS binding assay, carbonic anhydrase (negative control). Conditions: 10 μM compound, 3 μM carbonic anhydrase. As for the experimental part:
To this end, Carba1 or FK866 (positive control of NAMPT binding) was first incubated with NAMPT or carbonic anhydrase (CA; negative control). Protein-ligand complexes were separated from the unbound compounds by size exclusion chromatography (SEC). To quantify the protein-bound fraction, the complexes were then dissociated using reverse-phase chromatography, and the compounds were analyzed and quantified by mass spectrometry. By comparing the amounts of compound before (preSEC) and after (postSEC) SEC in the presence of CA or NAMPT, we assessed their ability to selectively bind to NAMPT.
as §1

Data set [7] relates to DRG explants. In words: Mouse embryonic 3D DRG explants: axonal degeneration and myelination (MBP/TUBB3). In kind it is cell-based. The note with it: 72 h; Carba1 12 μM or PTX 500 nM. As for the experimental part:
Embryonic DRG 3D explants were prepared from E13.5 mouse embryos and seeded at one explant/1.9 cm^2 on acid-treated, Matrigel-coated glass coverslips ([64], [65]). Explants were cultured at 37°C under 5% CO2 and high saturated in humidity. From DIV 0 to DIV 3, cultures were maintained in C-medium supplemented with 10% FBS, 1× GlutaMAX, D-glucose (4 g/liter), 2.5S nerve growth factor (NGF; 50 ng/ml), and 1% penicillin/streptomycin. From DIV 3 to DIV 7, neurobasal medium supplemented with 1× B27, 1× GlutaMAX, D-glucose (4 g/liter), 2.5S NGF (50 ng/ml), and 1% penicillin/streptomycin was used to promote axon development. From DIV 7 onward, differentiation medium [C-medium supplemented with 5 μM forskolin, ascorbic acid (50 μg/ml), and heparin (25 μg/ml)] was used to support glial cell maturation and myelination, with medium changes occurring every 2 days.
DRGs were fixed with 10% formalin for 20 min at R.T., washed with PBS, and permeabilized for 10 min with PBS–0.1% Triton X-100. Blocking was performed using a solution of 3% bovine serum albumin (BSA), 0.1% glycine, and 5% goat preimmune serum in PBS for 2 hours at R.T. DRGs were then washed in PBS and incubated overnight at 4°C with of anti-TUBB3 (1 μg/ml) and anti-MBP (1 μg/ml). After PBS washes, secondary antibodies (goat anti-mouse Alexa Fluor 488, 1:1000, and goat anti-rabbit Alexa Fluor 647, 1:1000) were applied for 1 hour at R.T. Explants were mounted with ProLong Gold antifade reagent with 4′,6-diamidino-2-phenylindole (DAPI).
Images of random fields of DRG explants, fixed in 4% formaldehyde and immunostained for TUBB3 and MBP, were captured with consistent acquisition times across samples, using a Zeiss AxioImager M2 microscope, equipped with a Hamamatsu Orca R2 camera. Image analysis was performed using Fiji software. The images were thresholded using the default global autothreshold method. For each field, MBP^+ segments were counted and normalized to the TUBB3^+ area.

Data set [8] has as its system PTX-induced neuropathy. In words: Rat model of PTX-induced peripheral neuropathy (von Frey, serum NfL, IENFD). In kind it is in vivo. As for the experimental part:
Control animals received an equivalent volume of the vehicle (cremophor EL:ethanol, 1:1) diluted 1:4 in 0.9% NaCl.
Carba1 was injected intraperitoneally six times (50 mg/kg) on days 0, 1, 2, 4, 7, and 9, resulting in a cumulative dose of 300 mg/kg (Fig. 2F). For each injection, Carba1 was injected intraperitoneally at 50 mg/kg on days 0, 1, 2, 4, 7, and 9, for a cumulative dose of 300 mg/kg, using a stock solution (150 mg/ml; cremophor EL:ethanol, 1:1) diluted to 50 mg/ml in 0.9% NaCl. Control animals for Carba1 received the same volume of the vehicle [cremophor EL:ethanol (1:1) diluted 1:3 in 0.9% NaCl]. […] To prevent cross-exposure through feces and urine, treatment groups were randomized by cage, with each cage housing three animals.
Tactile allodynia, a common sensory disorder reported in animal models of CIPN ([56]), was assessed using an electronic von Frey test (Bioseb) ([68]). Rats were placed in plastic compartments on a wire floor and allowed to habituate for 15 min. […] The maximum force (in grams) causing withdrawal was recorded automatically. The average of two measurements, not differing by more than 10 g, was used as the nociceptive threshold ([68]). Rats were habituated to the compartments 3 days before the first injection, and the experimenter was blinded to treatment groups.
Blood samples were collected on day 15 in vials with a clot activator, left at R.T. for up to 1 hour before centrifugation at 4100 rpm at 20°C for 10 min. Serum was then collected, aliquoted, and stored at −80°C until analysis. To reduce batch effects, serum samples were randomized on assay plates. NfL concentration was measured in the serum using commercial kits (Simple Plex Ella ProteinSimple, USA; Rat NfL Kit ProteinSimple) ([27]).
Skin samples from both hind paws were fixed in 4% PFA overnight at 4°C, followed by sucrose cryoprotection (10, 20, and 30%) at 4°C overnight. After embedding in tissue freezing medium, the samples were at −80°C. Sections (20 μm) were cut using a cryostat at −17°C, washed with PBS for 5 min, and dried. The sections were blocked in PBS/0.2% Triton X-100/1%BSA for 1 hour and then incubated overnight at R.T. with anti-PGP9.5 antibody (1:400). After washing with PBS, sections were incubated with goat anti-rabbit Alexa Fluor488 secondary antibody for 2 hours, and the nuclei were stained with DAPI. Imaging was performed by acquiring 0.5 μm Z-stacks and exposure times for DAPI and fluorescein isothiocyanate set to 600 ms. Quantification followed the method described by Lauria et al. ([69]).

The subject of data set [9] is HeLa cells xenografted in mice. In words: HeLa tumor xenograft in nude mice. In kind it is in vivo. Conditions: i.v. every 2 days, PTX 8 mg/kg, Carba1 60 mg/kg alone or with PTX. As for the experimental part:
Five-week-old NMRI nude mice (Janvier Labs) were implanted with 10 × 10^6 HeLa cells (200 μl in PBS) on the right flank. On day 6, the mean tumor volume was 120 ± 4 mm^3. […] Behavior and signs of pain were monitored daily. Body weight and tumor volume were measured two to three times per week using electronic calipers, with tumor volume (in cubic millimeters) calculated as length (millimeters)/2 × width^2 (square millimeters). Tumor growth inhibition was analyzed using GraphPad Prism with one-way analysis of variance (ANOVA) and Dunn’s multiple comparisons test for treatment versus vehicle. Mice were euthanized on day 20, when the vehicle group reached ethical limits. Blood samples were collected by intracardiac puncture in EDTA-coated tubes for differential blood counts and hemograms, outsourced to IDEXX BioAnalytics. For biochemical analysis, blood was collected in heparin-lithium tubes, and plasma was isolated by centrifugation and frozen at −80°C. Plasma was analyzed using MS Scan II (Melet Schloesing) and VET16 reagent rotors to measure markers of renal and hepatic function, metabolism, and nutritional and muscular status. Differential counts, hemograms, and biochemical data were analyzed with GraphPad Prism using Kruskal-Wallis test and Dunn’s multiple comparisons test.

Where [10] appears, read: 72 h, PrestoBlue, drug applied alone, read-out: GI50, drug alone.
Setting [11] is: rat serum, day 15, outliers removed.

`CC(C)C[C@H](NC(=O)[C@H](Cc1ccccc1)NC(=O)c1cnccn1)B(O)O` [Bort, bortezomib, reference compound]: the GI50 in data set [1] (setting [10]) is 0.0359 ± 0.0037 µM; in data set [1] (72 h, with 12 μM Carba1, read-out: GI50, drug in combination with Carba1), 0.04 ± 0.0033 µM. In data set [2], the “axonal fragmentation / degeneration, agent alone” value is recorded as “induced significant axonal fragmentation”.

As for `OC(CNc1ccccc1)Cn1c2ccc(Br)cc2c2cc(Br)ccc21` (stereo not shown) [Compound P7C3, reference compound], the “relief of FK866 cytotoxicity” value in data set [1] (coadministration with FK866) is listed as “unable to counteract the toxic effect of FK866”. Moreover, the “activation of NAMPT in vitro” value in [3] is on record as “No significant effect”.

As for `O=C(/C=C/c1cccnc1)NCCCCC1CCN(C(=O)c2ccccc2)CC1` [FK866, reference compound], in data set [1] (read-out: GI50 of FK866 alone), the GI50 turned out to be 0.0024 ± 9e-05 µM. For the same molecule, the “reduction of NAD(P)H production” value in [4] is listed as ~ 20%. The “binding to NAMPT (AS-MS)” value in data set [5] is given as “recovered in the fraction containing NAMPT”. Further, the “binding to CA (AS-MS)” value in data set [6] is “neither FK866 nor Carba1 was found to bind CA”.

Take `CC(=O)O[C@H]1C(=O)[C@@]2(C)[C@H]([C@H](OC(=O)c3ccccc3)[C@]3(O)C[C@H](OC(=O)[C@H](O)[C@@H](NC(=O)c4ccccc4)c4ccccc4)C(C)=C1C3(C)C)[C@]1(OC(C)=O)CO[C@@H]1C[C@@H]2O` [PTX, paclitaxel, reference compound]: the concentration for 50% growth inhibition (GI50) in data set [1] (setting [10]) worked out at 0.0042 ± 0.0004 µM. For the same molecule, in data set [7], the “MBP staining (axonal myelination), agent alone” value is reported as “significant reduction in MBP staining”. For the same molecule, in [8] (rat hind paw biopsies, day 15), the “IENFD, mean” value is listed as 13.43 number/mm and the “IENFD, median” value is given as 13.62 number/mm. Besides, in data set [8] (setting [11]), the “NfL, mean” value stood at 96.00 pg/mL and the “NfL, median” value came to 82.50 pg/mL. For the same molecule, in [8] (rat, i.p., PTX 5 mg/kg x4 or Carba1 50 mg/kg x6), the “tactile allodynia (paw withdrawal threshold, electronic von Frey), agent alone” value was “developed a tactile allodynia”. Further, in [8] (rat, vs controls), the “reduction of IENFD, agent alone” value worked out at 30%. Besides, in data set [9], the tumor size result is recorded as “markedly reduced tumor size”. Further, the “axonal fragmentation / degeneration, agent alone” value in [2] was “induced robust axonal degeneration”.

The record behind these values is publication PMC12571071, “Preventing neuropathy and improving anticancer chemotherapy with a carbazole-based compound” (Science Advances, 2025).
